# From patent US9980943B2, “Methods of treating muscular dystrophy” (BOARD OF REGENTS OF THE NEVADA SYSTEM OF HIGHER EDUCATION, …, priority 2013, dated 2018)
# Columns and labels:
# Format in all cases: cell-based, mouse
# [1] = test system: α7 integrin (LacZ reporter in α7βgal+/− myoblasts); assay: Myoblast α7+/LacZ integrin FDG assay (Burkin assay in myoblasts, 96-well); details: 96-well; for Burkin Assay in Myoblasts, signal relative to DMSO: α7+/LacZ myoblasts; for Burkin Assay in Myoblasts, value relative to DMSO: SU9516 analogs, N=3-6
# [2] = test system: α7 integrin (LacZ reporter in α7+/LacZ myotubes); assay: Myotube α7 integrin FDG assay (Burkin assay in myotubes, 96-well); details: for Burkin Assay in Myotubes, value relative to DMSO: SU9516 analogs, 96-well, N=3-6
# [3] = test system: β-galactosidase in CMV-LacZ C2C12 myoblasts; assay: CMV-LacZ secondary screen in C2C12 myoblasts (β-Gal stabilizing assay); details: for CMV-LACZ in Myoblasts (β-galactosidase activity relative to DMSO): CMV-LacZ C2C12 myoblasts; for CMV-LACZ in Myoblasts, value relative to DMSO: SU9516 analogs, C2C12 CMV-LacZ, N=2
# Summary of the method: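 β-gal stabilization was measured in C2C12 myoblasts or myotubes stably transfected with a CMV-driven LacZ construct, using the FDG β-gal assay. Compounds were tested in dose-response at 0.5, 1, 5, 10, 20 and 40 μM, with two replicates per point.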
# [4] = test system: β-galactosidase in CMV-LacZ C2C12 myotubes; assay: CMV-LacZ secondary screen in C2C12 myotubes (β-Gal stabilizing assay); details: for CMV-LACZ in Myotubes, signal relative to DMSO: C2C12 CMV-LacZ myotubes, fold relative to DMSO; for CMV-LACZ in Myotubes, value relative to DMSO: SU9516 analogs, C2C12 CMV-LacZ, N=2
# Summary of the method: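 CMV-LacZ C2C12 line (clonal, FDG-screened); myoblasts/myotubes dosed 0.5–40 μM (0.5, 1, 5, 10, 20, 40 μM); n=2 per point; β-gal stabilization read-out.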
compound,measurement,setting,value
C#CC1(O)CCC2C3CCC4=C/C(=N/OCC(=O)NCC(=O)NC(C(=O)O)C(C)C)CC[C@]4(C)C3CC[C@@]21C (stereo partly drawn) [MLS001163859-01],"Burkin Assay in Myoblasts, signal relative to DMSO",[1]; 0.5 uM,0.9786
same,"Burkin Assay in Myoblasts, signal relative to DMSO",[1]; 1 uM,1.09
same,"Burkin Assay in Myoblasts, signal relative to DMSO",[1]; 5 uM,1.055
same,"Burkin Assay in Myoblasts, signal relative to DMSO",[1]; 10 uM,1.024
same,"Burkin Assay in Myoblasts, signal relative to DMSO",[1]; 20 uM,0.9208
same,"Burkin Assay in Myoblasts, signal relative to DMSO",[1]; 40 uM,0.928
same,"Burkin Assay in Myotubes, α7 integrin LacZ reporter signal relative to DMSO",[2]; 0.5 uM,1.132
same,"Burkin Assay in Myotubes, α7 integrin LacZ reporter signal relative to DMSO",[2]; 1 uM,1.281
same,"Burkin Assay in Myotubes, α7 integrin LacZ reporter signal relative to DMSO",[2]; 5 uM,1.385
same,"Burkin Assay in Myotubes, α7 integrin LacZ reporter signal relative to DMSO",[2]; 10 uM,1.249
same,"Burkin Assay in Myotubes, α7 integrin LacZ reporter signal relative to DMSO",[2]; 20 uM,1.118
same,"Burkin Assay in Myotubes, α7 integrin LacZ reporter signal relative to DMSO",[2]; 40 uM,1.058
same,CMV-LACZ in Myoblasts (β-galactosidase activity relative to DMSO),[3]; 0.5 uM,1.1113
same,CMV-LACZ in Myoblasts (β-galactosidase activity relative to DMSO),[3]; 1 uM,1.1684
same,CMV-LACZ in Myoblasts (β-galactosidase activity relative to DMSO),[3]; 5 uM,1.2009
same,CMV-LACZ in Myoblasts (β-galactosidase activity relative to DMSO),[3]; 10 uM,1.1812
same,CMV-LACZ in Myoblasts (β-galactosidase activity relative to DMSO),[3]; 20 uM,0.7593
same,CMV-LACZ in Myoblasts (β-galactosidase activity relative to DMSO),[3]; 40 uM,0.8104
same,"CMV-LACZ in Myotubes, signal relative to DMSO",[4]; 0.5 uM,0.8756
same,"CMV-LACZ in Myotubes, signal relative to DMSO",[4]; 1 uM,1.1326
same,"CMV-LACZ in Myotubes, signal relative to DMSO",[4]; 5 uM,1.0856
same,"CMV-LACZ in Myotubes, signal relative to DMSO",[4]; 10 uM,1.1727
same,"CMV-LACZ in Myotubes, signal relative to DMSO",[4]; 20 uM,1.0965
same,"CMV-LACZ in Myotubes, signal relative to DMSO",[4]; 40 uM,1.2482
CCCN(C(=O)c1ccc(S(=O)(=O)N2CCCC2)cc1)C1CCS(=O)(=O)C1 (stereo not drawn) [MLS002161853-01],"Burkin Assay in Myoblasts, signal relative to DMSO",[1]; 0.5 uM,0.8569
same,"Burkin Assay in Myoblasts, signal relative to DMSO",[1]; 1 uM,0.8278
same,"Burkin Assay in Myoblasts, signal relative to DMSO",[1]; 5 uM,0.9386
same,"Burkin Assay in Myoblasts, signal relative to DMSO",[1]; 10 uM,1.1978
same,"Burkin Assay in Myoblasts, signal relative to DMSO",[1]; 20 uM,1.073
same,"Burkin Assay in Myoblasts, signal relative to DMSO",[1]; 40 uM,0.9354
same,"Burkin Assay in Myotubes, α7 integrin LacZ reporter signal relative to DMSO",[2]; 0.5 uM,0.8761
same,"Burkin Assay in Myotubes, α7 integrin LacZ reporter signal relative to DMSO",[2]; 1 uM,0.8092
same,"Burkin Assay in Myotubes, α7 integrin LacZ reporter signal relative to DMSO",[2]; 5 uM,0.9889
same,"Burkin Assay in Myotubes, α7 integrin LacZ reporter signal relative to DMSO",[2]; 10 uM,1.16
same,"Burkin Assay in Myotubes, α7 integrin LacZ reporter signal relative to DMSO",[2]; 20 uM,0.919
same,"Burkin Assay in Myotubes, α7 integrin LacZ reporter signal relative to DMSO",[2]; 40 uM,0.9353
same,CMV-LACZ in Myoblasts (β-galactosidase activity relative to DMSO),[3]; 0.5 uM,1.0131
same,CMV-LACZ in Myoblasts (β-galactosidase activity relative to DMSO),[3]; 1 uM,0.8734
same,CMV-LACZ in Myoblasts (β-galactosidase activity relative to DMSO),[3]; 5 uM,0.8819
same,CMV-LACZ in Myoblasts (β-galactosidase activity relative to DMSO),[3]; 10 uM,0.9436
same,CMV-LACZ in Myoblasts (β-galactosidase activity relative to DMSO),[3]; 20 uM,1.0922
same,CMV-LACZ in Myoblasts (β-galactosidase activity relative to DMSO),[3]; 40 uM,0.9348
same,"CMV-LACZ in Myotubes, signal relative to DMSO",[4]; 0.5 uM,1.0524
same,"CMV-LACZ in Myotubes, signal relative to DMSO",[4]; 1 uM,0.8352
same,"CMV-LACZ in Myotubes, signal relative to DMSO",[4]; 5 uM,1.1122
same,"CMV-LACZ in Myotubes, signal relative to DMSO",[4]; 10 uM,0.9103
same,"CMV-LACZ in Myotubes, signal relative to DMSO",[4]; 20 uM,1.2341
same,"CMV-LACZ in Myotubes, signal relative to DMSO",[4]; 40 uM,1.0647
CCn1c(O)c(C(C#N)=C2N=c3ccccc3=N2)c2ccccc21 [MLS000564846-01],"Burkin Assay in Myoblasts, value relative to DMSO",[1]; 0.5 uM,0.8359
same,"Burkin Assay in Myoblasts, value relative to DMSO",[1]; 1 uM,0.8438
same,"Burkin Assay in Myoblasts, value relative to DMSO",[1]; 5 uM,0.8067
same,"Burkin Assay in Myoblasts, value relative to DMSO",[1]; 10 uM,0.8704
same,"Burkin Assay in Myoblasts, value relative to DMSO",[1]; 20 uM,0.7406
same,"Burkin Assay in Myoblasts, value relative to DMSO",[1]; 40 uM,0.759
same,"Burkin Assay in Myotubes, value relative to DMSO",[2]; 0.5 uM,0.8836
same,"Burkin Assay in Myotubes, value relative to DMSO",[2]; 1 uM,0.9557
same,"Burkin Assay in Myotubes, value relative to DMSO",[2]; 5 uM,1.002
same,"Burkin Assay in Myotubes, value relative to DMSO",[2]; 10 uM,1.071
same,"Burkin Assay in Myotubes, value relative to DMSO",[2]; 20 uM,0.7006
same,"Burkin Assay in Myotubes, value relative to DMSO",[2]; 40 uM,0.7529
same,"CMV-LACZ in Myoblasts, value relative to DMSO",[3]; 0.5 uM,0.9922
same,"CMV-LACZ in Myoblasts, value relative to DMSO",[3]; 1 uM,0.8172
same,"CMV-LACZ in Myoblasts, value relative to DMSO",[3]; 5 uM,0.9379
same,"CMV-LACZ in Myoblasts, value relative to DMSO",[3]; 10 uM,1.3619
same,"CMV-LACZ in Myoblasts, value relative to DMSO",[3]; 20 uM,1.2363
same,"CMV-LACZ in Myoblasts, value relative to DMSO",[3]; 40 uM,1.0885
same,"CMV-LACZ in Myotubes, value relative to DMSO",[4]; 0.5 uM,0.8304
same,"CMV-LACZ in Myotubes, value relative to DMSO",[4]; 1 uM,1.0444
same,"CMV-LACZ in Myotubes, value relative to DMSO",[4]; 5 uM,1.1234
same,"CMV-LACZ in Myotubes, value relative to DMSO",[4]; 10 uM,0.8711
same,"CMV-LACZ in Myotubes, value relative to DMSO",[4]; 20 uM,1.2012
same,"CMV-LACZ in Myotubes, value relative to DMSO",[4]; 40 uM,1.0094
